Consider 19 compounds from patent US20260265238A1, “COMPOUNDS AND PHARMACEUTICAL COMPOSITIONS THAT DEGRADE SWI/SNF-RELATED MATRIX-ASSOCIATED ACTIN-DEPENDENT REGULATOR OF CHROMATIN SUBFAMILY A” (Plexium, Inc., priority 2023, published 2026).

In general, DC50 refers to the concentration at which degradation of the target reaches its halfway point. A lower DC50 goes with a more potent degrader. Broadly, the inhibition is how much of the control response was suppressed. The low end stands for little suppression, the high end for strong suppression.

Experiment [1] deals with T1, SMARCA4-HiBiT HeLa cells (protein which is expressed from the SMARCA4 gene) (Homo sapiens, UniProt P51532).
T1 construct: protein which is expressed from the SMARCA2 and SMARCA4 genes; host or cells: HeLa (SMARCA4-HiBiT engineered line)
T1 sequence (P51532 whole entry): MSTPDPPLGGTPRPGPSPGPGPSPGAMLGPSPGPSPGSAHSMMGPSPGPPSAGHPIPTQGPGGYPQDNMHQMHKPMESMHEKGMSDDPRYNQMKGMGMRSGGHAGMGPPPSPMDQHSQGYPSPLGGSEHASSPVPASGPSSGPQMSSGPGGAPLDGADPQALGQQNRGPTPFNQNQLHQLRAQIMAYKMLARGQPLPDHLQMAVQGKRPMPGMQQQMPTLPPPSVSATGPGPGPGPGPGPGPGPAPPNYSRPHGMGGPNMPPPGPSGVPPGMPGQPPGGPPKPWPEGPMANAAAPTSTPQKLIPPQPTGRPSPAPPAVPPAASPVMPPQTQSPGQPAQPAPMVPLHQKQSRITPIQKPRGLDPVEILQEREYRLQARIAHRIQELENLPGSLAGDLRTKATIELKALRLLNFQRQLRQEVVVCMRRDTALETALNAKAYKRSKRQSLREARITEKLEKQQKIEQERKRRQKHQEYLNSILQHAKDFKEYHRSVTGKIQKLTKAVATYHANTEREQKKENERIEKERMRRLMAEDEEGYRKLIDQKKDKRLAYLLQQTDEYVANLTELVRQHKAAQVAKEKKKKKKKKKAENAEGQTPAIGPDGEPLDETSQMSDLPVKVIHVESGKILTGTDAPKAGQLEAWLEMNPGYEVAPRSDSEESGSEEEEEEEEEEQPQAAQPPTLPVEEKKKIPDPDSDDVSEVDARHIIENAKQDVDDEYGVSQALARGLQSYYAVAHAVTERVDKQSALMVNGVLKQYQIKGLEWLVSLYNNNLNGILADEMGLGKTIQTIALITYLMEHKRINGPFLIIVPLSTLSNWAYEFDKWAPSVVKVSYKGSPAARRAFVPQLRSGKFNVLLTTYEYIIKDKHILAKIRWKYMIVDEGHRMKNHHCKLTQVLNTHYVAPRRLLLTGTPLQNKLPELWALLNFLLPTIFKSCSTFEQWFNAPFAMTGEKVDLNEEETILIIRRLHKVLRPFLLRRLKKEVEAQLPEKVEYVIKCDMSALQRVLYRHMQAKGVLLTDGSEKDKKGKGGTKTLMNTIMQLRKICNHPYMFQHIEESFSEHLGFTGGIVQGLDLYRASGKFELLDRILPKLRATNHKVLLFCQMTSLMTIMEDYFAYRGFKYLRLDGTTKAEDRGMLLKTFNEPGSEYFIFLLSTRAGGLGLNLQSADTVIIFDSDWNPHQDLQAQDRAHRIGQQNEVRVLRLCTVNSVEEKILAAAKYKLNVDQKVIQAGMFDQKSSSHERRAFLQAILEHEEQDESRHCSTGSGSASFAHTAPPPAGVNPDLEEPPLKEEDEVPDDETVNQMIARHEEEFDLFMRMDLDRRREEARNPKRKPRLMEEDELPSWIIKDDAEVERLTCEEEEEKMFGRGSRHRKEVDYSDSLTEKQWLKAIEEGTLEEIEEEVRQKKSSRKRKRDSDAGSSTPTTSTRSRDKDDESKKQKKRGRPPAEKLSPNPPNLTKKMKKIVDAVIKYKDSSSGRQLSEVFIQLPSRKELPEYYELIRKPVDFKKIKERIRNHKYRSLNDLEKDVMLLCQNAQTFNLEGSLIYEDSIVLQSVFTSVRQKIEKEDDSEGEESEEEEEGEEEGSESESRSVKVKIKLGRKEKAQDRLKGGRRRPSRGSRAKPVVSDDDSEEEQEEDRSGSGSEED
Briefly: SMARCA4 degradation assay (HiBiT-fusion HeLa cell line, 24 h, luminescence). The experiment is classed as cell-based. The essentials: (§1)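 HeLa cells carrying HiBiT-tagged SMARCA2 or SMARCA4 were seeded at 8,000 cells/well, allowed to attach overnight at 37° C., then given compounds in a 10-point dilution series (typically 10 μM to 300 pM) for 24 hours at 37° C. Remaining tagged protein was read by HiBiT lytic luminescence, and DC50s came from dose-response curves.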

The target of experiment [2] is T2, SMARCA2-HiBiT HeLa cells (protein which is expressed from the SMARCA2 gene) (Homo sapiens, UniProt P51531).
T2 construct: protein which is expressed from the SMARCA2 and SMARCA4 genes; host or cells: HeLa (SMARCA2-HiBiT engineered line)
T2 sequence (P51531 whole entry): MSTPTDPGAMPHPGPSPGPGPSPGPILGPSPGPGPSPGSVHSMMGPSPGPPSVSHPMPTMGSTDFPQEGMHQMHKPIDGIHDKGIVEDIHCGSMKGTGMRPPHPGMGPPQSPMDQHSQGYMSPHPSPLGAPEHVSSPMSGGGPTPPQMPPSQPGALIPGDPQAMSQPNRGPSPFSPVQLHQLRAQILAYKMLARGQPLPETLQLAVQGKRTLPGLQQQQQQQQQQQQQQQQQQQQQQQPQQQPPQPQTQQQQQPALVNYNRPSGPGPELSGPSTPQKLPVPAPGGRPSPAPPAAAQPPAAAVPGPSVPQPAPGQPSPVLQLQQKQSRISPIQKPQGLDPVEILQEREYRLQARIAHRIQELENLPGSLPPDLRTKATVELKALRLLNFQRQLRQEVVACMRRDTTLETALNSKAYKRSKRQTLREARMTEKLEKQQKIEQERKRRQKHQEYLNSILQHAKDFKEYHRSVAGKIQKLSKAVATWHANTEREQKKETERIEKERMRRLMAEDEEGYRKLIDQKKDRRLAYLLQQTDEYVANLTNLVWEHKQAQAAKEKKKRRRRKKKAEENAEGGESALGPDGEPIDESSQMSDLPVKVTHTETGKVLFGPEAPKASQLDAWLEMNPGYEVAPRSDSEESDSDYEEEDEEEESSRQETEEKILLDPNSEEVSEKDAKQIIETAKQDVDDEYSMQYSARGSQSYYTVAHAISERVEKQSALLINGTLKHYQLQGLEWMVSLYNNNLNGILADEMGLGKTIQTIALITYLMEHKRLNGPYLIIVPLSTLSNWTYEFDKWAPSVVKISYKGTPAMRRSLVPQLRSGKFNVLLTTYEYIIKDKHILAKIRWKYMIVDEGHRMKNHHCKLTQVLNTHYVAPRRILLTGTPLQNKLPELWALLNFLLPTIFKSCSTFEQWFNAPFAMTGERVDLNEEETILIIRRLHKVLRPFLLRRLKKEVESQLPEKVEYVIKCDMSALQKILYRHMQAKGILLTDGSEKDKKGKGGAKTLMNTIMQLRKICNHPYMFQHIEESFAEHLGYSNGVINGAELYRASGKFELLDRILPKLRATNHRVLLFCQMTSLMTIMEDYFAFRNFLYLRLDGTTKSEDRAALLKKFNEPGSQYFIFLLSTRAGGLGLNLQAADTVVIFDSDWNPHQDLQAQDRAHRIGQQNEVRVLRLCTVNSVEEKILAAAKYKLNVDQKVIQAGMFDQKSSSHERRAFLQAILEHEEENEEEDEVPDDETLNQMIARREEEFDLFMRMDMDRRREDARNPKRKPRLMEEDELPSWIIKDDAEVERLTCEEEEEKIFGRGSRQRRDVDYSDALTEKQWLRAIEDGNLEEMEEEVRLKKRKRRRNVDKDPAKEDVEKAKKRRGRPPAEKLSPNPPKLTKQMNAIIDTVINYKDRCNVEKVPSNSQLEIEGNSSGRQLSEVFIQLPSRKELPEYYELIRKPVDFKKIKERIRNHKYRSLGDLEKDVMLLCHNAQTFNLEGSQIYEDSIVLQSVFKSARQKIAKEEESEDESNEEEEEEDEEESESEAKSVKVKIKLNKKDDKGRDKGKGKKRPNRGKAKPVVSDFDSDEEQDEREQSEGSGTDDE
Kind of experiment: SMARCA2 degradation assay (HiBiT-fusion HeLa cell line, 24 h, luminescence). Format: cell-based. The essentials: as §1
For orientation: With HiBiT, luminescence reflects the tagged protein that the partner subunit can reach.

In experiment [1], `CC(C)(C)OC(=O)NC1CCN(CC#Cc2nccc(N3CCCN(c4cc(-c5ccccc5O)nnc4N)CC3)n2)CC1` [Compound P-142, tert-butyl (1-(3-(4-(4-(3-amino-6-(2-hydroxyphenyl)pyridazin-4-yl)-1,4-diazepan-1-yl)pyrimidin-2-yl)prop-2-yn-1-yl)piperidin-4-yl)carbamate] showed a half-maximal degradation concentration (DC50) of 50 to 500 nM and an inhibition at 1 µM greater than 70%. In experiment [2], the 50% degradation concentration (DC50) lay in the range of 50 to 500 nM and the “SMARCA2 % Degradation @ 1 μM” value is listed as “+++ (+++=>70%)”.

Consider `Nc1nnc(-c2ccccc2O)cc1N1CCCN(c2ccnc(C#CCN[C@@H]3CCOC3)n2)CC1` [Compound P-273, 0-{5-[4-(2-{3-[(R)-tetrahydro-3-furylamino]-1-propynyl}-4-pyrimidinyl)-1,4-diazepan-1-yl]-6-amino-3-pyridazinyl}phenol], for which, in experiment [1], the DC50 lay within 50 to 500 nM and the inhibition at 1 µM is 30 to 70%. Also, in experiment [2], the 50% degradation concentration (DC50) was 50 to 500 nM and the “SMARCA2 % Degradation @ 1 μM” value is “+++ (+++=>70%)”.

In experiment [1], `Nc1nnc(-c2ccccc2O)cc1N1CC2CCC(C1)N2c1ccnc(C#CCn2cncn2)n1` [Compound P-289, 0-[6-amino-5-(8-{2-[3-(1H-1,2,4-triazol-1-yl)-1-propynyl]-4-pyrimidinyl}-3,8-diazabicyclo[3.2.1]oct-3-yl)-3-pyridazinyl]phenol] registered a DC50 of 50 to 500 nM and an inhibition at 1 µM of 30 to 70%. Besides, in experiment [2], the half-maximal degradation concentration (DC50) was 50 to 500 nM and the “SMARCA2 % Degradation @ 1 μM” value is “++ (++=30-70%)”.

In experiment [1], `Nc1nnc(-c2ccccc2O)cc1N1CCC2(CCN(c3ccnc(C#CCNC(=O)c4cc5ncccn5n4)n3)CC2)CC1` [Compound P-42, N-(3-(4-(9-(3-amino-6-(2-hydroxyphenyl)pyridazin-4-yl)-3,9-diazaspiro[5.5]undecan-3-yl)pyrimidin-2-yl)prop-2-yn-1-yl)pyrazolo[1,5-a]pyrimidine-2-carboxamide] came in with a 50% degradation concentration (DC50) of 50 to 500 nM and an inhibition at 1 µM of 30 to 70%. In addition, in experiment [2], the half-maximal degradation concentration (DC50) was in the range of 50 to 500 nM and the “SMARCA2 % Degradation @ 1 μM” value is recorded as “++ (++=30-70%)”.

On to `C[C@@H]1CN(c2cc(-c3ccccc3O)nnc2N)CCN1c1ccnc(C#CCNC(=O)c2cc3ncccn3n2)n1` [Compound P-50, (R)-N-(3-(4-(4-(3-amino-6-(2-hydroxyphenyl)pyridazin-4-yl)-2-methylpiperazin-1-yl)pyrimidin-2-yl)prop-2-yn-1-yl)pyrazolo[1,5-a]pyrimidine-2-carboxamide], for which, in experiment [1], the 50% degradation concentration (DC50) is less than 50 nM and the inhibition at 1 µM was 30 to 70%. Also, in experiment [2], the DC50 was less than 50 nM and the “SMARCA2 % Degradation @ 1 μM” value is recorded as “++ (++=30-70%)”.

As to `C[C@H]1CN(c2cc(-c3ccccc3O)nnc2N)[C@@H](C)CN1c1ccnc(C#CCNC(=O)c2cc3ncccn3n2)n1` [Compound P-343, N-[3-(4-{(2S,5S)-4-[3-amino-6-(0-hydroxyphenyl)-4-pyridaziny1]-2,5-dimethyl-1-piperazinyl}-2-pyrimidinyl)-2-propynyl]-1,4,7a-triaza-2-indenecarboxamide], in experiment [1], the half-maximal degradation concentration (DC50) is 50 to 500 nM and the inhibition at 1 µM was 30 to 70%. In experiment [2], the DC50 was 50 to 500 nM and the “SMARCA2 % Degradation @ 1 μM” value is “++ (++=30-70%)”.

As to `Nc1nnc(-c2ccccc2O)cc1N1CCCN(c2ccnc(C#CCN3CCOC4(CCCC4)C3)n2)CC1` [Compound P-370, 0-{6-amino-5-[4-(2-{3-(6-oxa-9-aza-9-spiro[4.5]decyl)-1-propynyl}-4-pyrimidinyl)-1,4-diazepan-1-yl]-3-pyridazinyl}phenol], in experiment [1], the DC50 lay within 50 to 500 nM and the inhibition at 1 µM was in the range of 30 to 70%. Besides, in experiment [2], the 50% degradation concentration (DC50) fell in the range of 50 to 500 nM and the “SMARCA2 % Degradation @ 1 μM” value was “+++ (+++=>70%)”.

Turning to `Nc1nnc(-c2ccccc2O)cc1N1CCCN(c2ccnc(C#CCN3CCC3)n2)CC1` [Compound P-308, 0-[6-amino-5-(4-{2-[3-(1-azetidinyl)-1-propynyl]-4-pyrimidinyl}-1,4-diazepan-1-yl)-3-pyridazinyl]phenol], in experiment [1], the DC50 fell in the range of 500 to 5000 nM and the inhibition at 1 µM was 30 to 70%. In experiment [2], the DC50 fell in the range of 500 to 5000 nM and the “SMARCA2 % Degradation @ 1 μM” value is recorded as “++ (++=30-70%)”.

As to `Nc1nnc(-c2ccccc2O)cc1N1CCCN(c2ccnc(C#CCn3cncn3)n2)CC1` [Compound P-148, 2-(5-(4-(2-(3-(1H-1,2,4-triazol-1-yl)prop-1-yn-1-yl)pyrimidin-4-yl)-1,4-diazepan-1-yl)-6-aminopyridazin-3-yl)phenol], in experiment [1], the half-maximal degradation concentration (DC50) is 50 to 500 nM and the inhibition at 1 µM was in the range of 30 to 70%. In addition, in experiment [2], the DC50 is 50 to 500 nM and the “SMARCA2 % Degradation @ 1 μM” value was “+++ (+++=>70%)”.

In experiment [1], `Cc1nc(C)n(CC#Cc2nccc(N3CCN(c4cc(-c5ccccc5O)nnc4N)CC[C@H]3C)n2)c1C` [Compound P-185, o-{5-[(R)-5-methyl-4-{2-[3-(2,4,5-trimethyl-1-imidazolyl)-1-propynyl]-4-pyrimidinyl}-1,4-diazepan-1-y1]-6-amino-3-pyridaziny1} phenol] gave a 50% degradation concentration (DC50) of 50 to 500 nM and an inhibition at 1 µM greater than 70%. Moreover, in experiment [2], the DC50 lay within 50 to 500 nM and the “SMARCA2 % Degradation @ 1 μM” value is reported as “+++ (+++=>70%)”.

In experiment [1], `CN(C)CC#Cc1nccc(N2C[C@H]3CC[C@@H](C2)[C@H]3Oc2cc(-c3ccccc3O)nnc2N)n1` [Compound P-156, o-{5-[(1R,5S,8r)-3-{2-[3-(dimethylamino)-1-propynyl]-4-pyrimidinyl}-3-azabicyclo[3.2.1]oct-8-yloxy]-6-amino-3-pyridazinyl}phenol] showed a DC50 of 500 to 5000 nM and an inhibition at 1 µM of less than 30%. Besides, in experiment [2], the DC50 lay within 50 to 500 nM and the “SMARCA2 % Degradation @ 1 μM” value was “++ (++=30-70%)”.

On to `C[C@@H]1CCN(c2cnnc(-c3ccccc3O)c2)CCN1c1ccc(C#N)c(C#CCNC(=O)c2cc3ncccn3n2)n1` [Compound P-410, N-[3-(6-{(R)-4-[6-(0-hydroxyphenyl)-4-pyridazinyl]-7-methyl-1,4-diazepan-1-yl}-3-cyano-2-pyridyl)-2-propynyl]-1,4,7a-triaza-2-indenecarboxamide], for which the DC50 in experiment [1] and in experiment [2] was greater than 5000 nM in each case.

Take `Nc1nnc(-c2ccccc2O)cc1N1C2CCC1CN(c1ccnc(C#CCCNC(=O)c3cc4ncccn4n3)n1)C2` [Compound P-22, N-(4-(4-(8-(3-amino-6-(2-hydroxyphenyl)pyridazin-4-yl)-3,8-diazabicyclo[3.2.1]octan-3-yl)pyrimidin-2-yl)but-3-yn-1-yl)pyrazolo[1,5-a]pyrimidinc-2-carboxamide]: in experiment [1], the DC50 lay in the range of 500 to 5000 nM and the inhibition at 1 µM lay in the range of 30 to 70%. In addition, in experiment [2], the DC50 fell in the range of 500 to 5000 nM and the “SMARCA2 % Degradation @ 1 μM” value was “++ (++=30-70%)”.

As to `CC(C)(C)OC(=O)N1CCC[C@H]1C#Cc1nccc(N2CCCN(c3cc(-c4ccccc4O)nnc3N)CC2)n1` [Compound P-314, tert-butyl (S)-2-[2-(4-{4-[3-amino-6-(o-hydroxyphenyl)-4-pyridazinyl]-1,4-diazepan-1-yl}-2-pyrimidinyl)ethynyl]-1-pyrrolidinecarboxylate], the half-maximal degradation concentration (DC50) in experiment [1] and in experiment [2] was 50 to 500 nM each time. In experiment [1], this compound had an inhibition at 1 µM of 30 to 70%.

Consider `Nc1nnc(-c2ccccc2O)cc1N1CCCN(c2ccnc(C#CCn3cccn3)n2)CC1` [Compound P-149, 2-(5-(4-(2-(3-(1H-pyrazol-1-yl)prop-1-yn-1-yl)pyrimidin-4-yl)-1,4-diazepan-1-yl)-6-aminopyridazin-3-yl)phenol], for which the DC50 in experiment [1] and in experiment [2] was 50 to 500 nM throughout. Besides, the inhibition at 1 µM in experiment [1] was 30 to 70%.

As for `Nc1nnc(-c2ccccc2O)cc1N1CCCC2(CCN(c3ccnc(C#CCNC(=O)c4cc5ncccn5n4)n3)CC2)C1` [Compound P-33, N-(3-(4-(2-(3-amino-6-(2-hydroxyphenyl)pyridazin-4-yl)-2,9-diazaspiro[5.5]undecan-9-yl)pyrimidin-2-yl)prop-2-yn-1-yl)pyrazolo[1,5-a]pyrimidine-2-carboxamide], in experiment [1], the half-maximal degradation concentration (DC50) lay within 50 to 500 nM and the inhibition at 1 µM was in the range of 30 to 70%. In experiment [2], the DC50 is 50 to 500 nM and the “SMARCA2 % Degradation @ 1 μM” value was “++ (++=30-70%)”.

As to `C[C@@H]1CCN(c2cc(-c3ccccc3O)nnc2N)CCN1c1ccnc(C#CCN2[C@@H]3CC[C@H]2C[C@@H](O)C3)n1` [Compound P-261, 8-[3-(4-{(R)-4-[3-amino-6-(o-hydroxyphenyl)-4-pyridazinyl]-7-methyl-1,4-diazepan-1-yl}-2-pyrimidinyl)-2-propynyl]-8-azabicyclo[3.2.1]octan-3-ol], in experiment [1], the DC50 was in the range of 50 to 500 nM and the inhibition at 1 µM lay in the range of 30 to 70%. Besides, in experiment [2], the DC50 was in the range of 50 to 500 nM and the “SMARCA2 % Degradation @ 1 μM” value is given as “+++ (+++=>70%)”.

In experiment [1], `C[C@@H]1CCN(c2cc(-c3ccccc3O)nnc2N)CCN1c1ccnc(C#CCN2CC[C@H](F)C2)n1` [Compound P-244, o-{5-[(R)-4-(2-{3-[(S)-3-fluoro-1-pyrrolidinyl]-1-propynyl}-4-pyrimidinyl)-5-methyl-1,4-diazepan-1-yl]-6-amino-3-pyridaziny1}phenol] yielded a half-maximal degradation concentration (DC50) of less than 50 nM and an inhibition at 1 µM of 30 to 70%. Also, in experiment [2], the half-maximal degradation concentration (DC50) was less than 50 nM and the “SMARCA2 % Degradation @ 1 μM” value is “++ (++=30-70%)”.

Turning to `Nc1nnc(-c2cc(F)ccc2O)cc1N1CCCN(c2ccnc(C#CCNC(=O)c3cc4ncccn4n3)n2)CC1` [Compound P-367, N-[3-(4-{4-[3-amino-6-(5-fluoro-2-hydroxyphenyl)-4-pyridazinyl]-1,4-diazepan-1-y1}-2-pyrimidinyl)-2-propynyl]-1,4,7a-triaza-2-indenecarboxamide], in experiment [1], the 50% degradation concentration (DC50) is 500 to 5000 nM and the inhibition at 1 µM is less than 30%. For the same compound, in experiment [2], the DC50 was in the range of 500 to 5000 nM and the “SMARCA2 % Degradation @ 1 μM” value is “++ (++=30-70%)”.
